Data: ChEMBL document CHEMBL1201862, “PubChem BioAssay data set” (2004)
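Five compound concentrations were applied to cells in 96-well plates for 48 hours; endpoints were derived by simple linear interpolation of the resulting dose-response curve. GI50 is the concentration that inhibits growth by half.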 The source made the active and inactive calls. Rule as the data show it: active = GI50 up to about 1.1 µM and inactive = higher.

How the values were obtained:
Assay in all cases: NCI anticancer screen, dose series, 48 h
SF-268 = test system: SF-268
SK-MEL-28 = test system: SK-MEL-28
786-0 = test system: 786-0
SNB-19 = test system: SNB-19
RPMI-8226 = test system: RPMI-8226
HCC 2998 = test system: HCC 2998
M19-MEL = test system: M19-MEL
DU-145 = test system: DU-145
EKVX = test system: EKVX
HL-60 = test system: HL-60
K562 = test system: K562
SR = test system: SR
HCT-116 = test system: HCT-116
LOX IMVI = test system: LOX IMVI
KM12 = test system: KM12
SF-295 = test system: SF-295
NCI-H226 = test system: NCI-H226
NCI/ADR-RES = test system: NCI/ADR-RES
HCT-15 = test system: HCT-15
IGROV-1 = test system: IGROV-1
A498 = test system: A498
LXFL 529 = test system: LXFL 529
SF-539 = test system: SF-539
Malme-3M = test system: Malme-3M
SW-620 = test system: SW-620
MDA-N = test system: MDA-N
UACC-62 = test system: UACC-62
UO-31 = test system: UO-31
UACC-257 = test system: UACC-257
MDA-MB-231 = test system: MDA-MB-231
NCI-H460 = test system: NCI-H460
XF498 = test system: XF498
NCI-H23 = test system: NCI-H23
Hs-578T = test system: Hs-578T
NCI-H522 = test system: NCI-H522
CCRF-CEM = test system: CCRF-CEM
CAKI-1 = test system: CAKI-1
SN12C = test system: SN12C
DMS-114 = test system: DMS-114
TK-10 = test system: TK-10
OVCAR-8 = test system: OVCAR-8
HT-29 = test system: HT-29
SNB-78 = test system: SNB-78
U-251 = test system: U-251
A549 = test system: A549
MCF7 = test system: MCF7
HOP-92 = test system: HOP-92
SK-OV-3 = test system: SK-OV-3
DLD-1 = test system: DLD-1
OVCAR-5 = test system: OVCAR-5
PC-3 = test system: PC-3
BT-549 = test system: BT-549
OVCAR-3 = test system: OVCAR-3
SK-MEL-5 = test system: SK-MEL-5
HOP-62 = test system: HOP-62
RXF 393 = test system: RXF 393
COLO 205 = test system: COLO 205
MOLT-4 = test system: MOLT-4
ACHN = test system: ACHN
MDA-MB-435 = test system: MDA-MB-435
M14 = test system: M14
SNB-75 = test system: SNB-75
KM-20L2 = test system: KM-20L2
SK-MEL-2 = test system: SK-MEL-2
HOP-18 = test system: HOP-18
OVCAR-4 = test system: OVCAR-4
DMS-273 = test system: DMS-273

For CC(C)/C=C1\CCC(CN(C)C)C1=O (stereo unspecified), the GI50 (SF-268) was 8.85 µM (inactive), the GI50 (SK-MEL-28) was 2.21 µM (inactive) and the GI50 (786-0) was 0.632 µM (active). For the same compound, the GI50 (SNB-19) was 9.66 µM (inactive), the GI50 (RPMI-8226) was 0.13 µM (active) and the GI50 (HCC 2998) was 7.03 µM (inactive). The GI50 (M19-MEL) was 9.27 µM (inactive), the GI50 (DU-145) was 1.81 µM (inactive) and the GI50 (EKVX) was 7.1 µM (inactive). For the same compound, the GI50 (HL-60) was 1.09 µM (active), the GI50 (K562) was 0.893 µM (active) and the GI50 (SR) was 0.951 µM (active). The GI50 (HCT-116) was 0.871 µM (active), the GI50 (LOX IMVI) was 4.99 µM (inactive) and the GI50 (KM12) was 1.22 µM (inactive). The GI50 (SF-295) was 16.6 µM (inactive), the GI50 (NCI-H226) was 26.9 µM (inactive) and the GI50 (NCI/ADR-RES) was 3 µM (inactive). The GI50 (HCT-15) was 2.13 µM, the GI50 (IGROV-1) was 7.05 µM (inactive) and the GI50 (A498) was 6.87 µM (inactive). For the same compound, the GI50 (LXFL 529) was 1.5 µM (inactive), the GI50 (SF-539) was 7.29 µM (inactive) and the GI50 (Malme-3M) was 1.04 µM (active). The GI50 (SW-620) was 0.656 µM (active), the GI50 (MDA-N) was 2.92 µM (inactive) and the GI50 (UACC-62) was 16.8 µM (inactive). For the same compound, the GI50 (UO-31) was 8.79 µM (inactive), the GI50 (UACC-257) was 4.63 µM (inactive) and the GI50 (MDA-MB-231) was 1.42 µM (inactive). For the same compound, the GI50 (NCI-H460) was 18.9 µM (inactive), the GI50 (XF498) was 1.91 µM (inactive) and the GI50 (NCI-H23) was 5.56 µM (inactive). For the same compound, the GI50 (Hs-578T) was 1.86 µM (inactive), the GI50 (NCI-H522) was 0.082 µM (active) and the GI50 (CCRF-CEM) was 1.63 µM (inactive). The GI50 (CAKI-1) was 1.32 µM (inactive), the GI50 (SN12C) was 2.21 µM (inactive) and the GI50 (DMS-114) was 3.19 µM (inactive). For the same compound, the GI50 (TK-10) was 2.09 µM (inactive), the GI50 (OVCAR-8) was 2 µM (inactive) and the GI50 (HT-29) was 2.12 µM (inactive). For the same compound, the GI50 (SNB-78) was 4.51 µM (inactive), the GI50 (U-251) was 18.3 µM (inactive) and the GI50 (A549) was 8.57 µM (inactive). For the same compound, the GI50 (MCF7) was 0.313 µM (active), the GI50 (HOP-92) was 1.31 µM (inactive) and the GI50 (SK-OV-3) was 18.3 µM (inactive). For the same compound, the GI50 (DLD-1) was 1.67 µM (inactive), the GI50 (OVCAR-5) was 8.41 µM (inactive) and the GI50 (PC-3) was 4.66 µM (inactive). For the same compound, the GI50 (BT-549) was 3.17 µM (inactive), the GI50 (OVCAR-3) was 2.82 µM (inactive) and the GI50 (SK-MEL-5) was 4.97 µM (inactive). For the same compound, the GI50 (HOP-62) was 18.4 µM (inactive), the GI50 (RXF 393) was 0.656 µM (active) and the GI50 (COLO 205) was 0.586 µM (active). The GI50 (MOLT-4) was 1.07 µM (active), the GI50 (ACHN) was 5.82 µM (inactive) and the GI50 (MDA-MB-435) was 1.6 µM (inactive). The GI50 (M14) was 1.77 µM (inactive), the GI50 (SNB-75) was 3.48 µM (inactive) and the GI50 (KM-20L2) was 9.75 µM (inactive). For the same compound, the GI50 (SK-MEL-2) was 7.05 µM (inactive), the GI50 (HOP-18) was 3.36 µM (inactive) and the GI50 (OVCAR-4) was 7.35 µM (inactive).
With Sc1nnc(-c2ccnc(-c3nnc(S)[nH]3)c2)[nH]1 the GI50 (SF-268) was > 100 µM (inactive), the GI50 (SK-MEL-28) was > 100 µM (inactive) and the GI50 (786-0) was > 100 µM (inactive). The GI50 (SNB-19) was > 100 µM (inactive), the GI50 (RPMI-8226) was > 100 µM (inactive) and the GI50 (HCC 2998) was > 100 µM (inactive). For the same compound, the GI50 (M19-MEL) was > 100 µM (inactive), the GI50 (EKVX) was > 100 µM (inactive) and the GI50 (HL-60) was > 100 µM (inactive). The GI50 (K562) was > 100 µM (inactive), the GI50 (HCT-116) was > 100 µM (inactive) and the GI50 (LOX IMVI) was > 100 µM (inactive). The GI50 (KM12) was > 100 µM (inactive), the GI50 (SF-295) was > 100 µM (inactive) and the GI50 (NCI-H226) was > 100 µM (inactive). The GI50 (HCT-15) was > 100 µM, the GI50 (IGROV-1) was > 100 µM (inactive) and the GI50 (A498) was > 100 µM (inactive). For the same compound, the GI50 (LXFL 529) was > 100 µM (inactive), the GI50 (SF-539) was > 100 µM (inactive) and the GI50 (Malme-3M) was > 100 µM (inactive). For the same compound, the GI50 (SW-620) was > 100 µM (inactive), the GI50 (UACC-62) was > 100 µM (inactive) and the GI50 (UO-31) was > 100 µM (inactive). The GI50 (UACC-257) was > 100 µM (inactive), the GI50 (NCI-H460) was > 100 µM (inactive) and the GI50 (XF498) was > 79.1 µM (inactive). The GI50 (NCI-H23) was > 100 µM (inactive), the GI50 (DMS-273) was > 100 µM (inactive) and the GI50 (NCI-H522) was > 100 µM (inactive). The GI50 (CCRF-CEM) was > 100 µM (inactive), the GI50 (CAKI-1) was > 100 µM (inactive) and the GI50 (SN12C) was > 100 µM (inactive). For the same compound, the GI50 (DMS-114) was > 100 µM (inactive), the GI50 (TK-10) was > 100 µM (inactive) and the GI50 (OVCAR-8) was > 100 µM (inactive). For the same compound, the GI50 (HT-29) was > 100 µM (inactive), the GI50 (SNB-78) was > 100 µM (inactive) and the GI50 (U-251) was > 100 µM (inactive). The GI50 (A549) was > 100 µM (inactive), the GI50 (SK-OV-3) was > 100 µM (inactive) and the GI50 (DLD-1) was > 100 µM (inactive). The GI50 (OVCAR-5) was > 100 µM (inactive), the GI50 (OVCAR-3) was > 100 µM (inactive) and the GI50 (SK-MEL-5) was > 100 µM (inactive). For the same compound, the GI50 (HOP-62) was > 100 µM (inactive), the GI50 (RXF 393) was > 100 µM (inactive) and the GI50 (COLO 205) was > 100 µM (inactive). The GI50 (MOLT-4) was > 100 µM (inactive), the GI50 (ACHN) was > 100 µM (inactive) and the GI50 (M14) was > 100 µM (inactive). The GI50 (KM-20L2) was > 100 µM (inactive), the GI50 (SK-MEL-2) was > 100 µM (inactive) and the GI50 (HOP-18) was > 100 µM (inactive). For the same compound, the GI50 (OVCAR-4) was > 100 µM (inactive).
